Measurements as given in article PMC6309308 (Cell chemical biology, 2018).
Values joined by “and” are separate entries in the source; they are usually repeats but may differ in a detail not shown here. Identical values can stand only once.

What was measured:
Rpn11 = Rpn11 (Homo sapiens, UniProt O00487); assay: Rpn11 activity assay with Ub4-peptide substrate; type: biochemical; conditions: read-out: IC50 Rpn11
Csn5 = Csn5 (Homo sapiens, UniProt Q92905); assay: Csn5 inhibition assay; type: biochemical; conditions: read-out: IC50 Csn5
AMSH = target: T1, AMSH (Homo sapiens, UniProt O95630); assay: AMSH inhibition assay; type: biochemical; conditions: read-out: IC50 AMSH
T1 sequence (O95630 1-424): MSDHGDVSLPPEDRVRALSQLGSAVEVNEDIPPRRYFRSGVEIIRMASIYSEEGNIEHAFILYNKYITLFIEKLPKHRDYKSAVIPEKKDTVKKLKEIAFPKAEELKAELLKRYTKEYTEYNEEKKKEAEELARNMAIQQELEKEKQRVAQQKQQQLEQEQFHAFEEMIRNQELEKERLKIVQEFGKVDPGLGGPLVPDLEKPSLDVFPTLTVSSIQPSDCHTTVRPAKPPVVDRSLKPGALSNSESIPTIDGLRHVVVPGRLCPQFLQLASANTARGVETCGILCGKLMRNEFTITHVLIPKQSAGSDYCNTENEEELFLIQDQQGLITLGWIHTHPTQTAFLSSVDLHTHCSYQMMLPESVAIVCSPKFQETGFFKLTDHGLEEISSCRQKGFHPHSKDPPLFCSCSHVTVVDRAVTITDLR

[1] = target: Human carbonic anhydrase II (hCAII) (Homo sapiens, UniProt P00918); assay: hCAII assay; type: biochemical; conditions: read-out: IC50 hCAII; 10 nM hCAII, pH 8.0
MMP-2 = target: T2, MMP-2 (Homo sapiens, UniProt P08253); assay: MMP-2 assay; type: biochemical; conditions: read-out: IC50 MMP-2
T2 sequence (P08253 110-660): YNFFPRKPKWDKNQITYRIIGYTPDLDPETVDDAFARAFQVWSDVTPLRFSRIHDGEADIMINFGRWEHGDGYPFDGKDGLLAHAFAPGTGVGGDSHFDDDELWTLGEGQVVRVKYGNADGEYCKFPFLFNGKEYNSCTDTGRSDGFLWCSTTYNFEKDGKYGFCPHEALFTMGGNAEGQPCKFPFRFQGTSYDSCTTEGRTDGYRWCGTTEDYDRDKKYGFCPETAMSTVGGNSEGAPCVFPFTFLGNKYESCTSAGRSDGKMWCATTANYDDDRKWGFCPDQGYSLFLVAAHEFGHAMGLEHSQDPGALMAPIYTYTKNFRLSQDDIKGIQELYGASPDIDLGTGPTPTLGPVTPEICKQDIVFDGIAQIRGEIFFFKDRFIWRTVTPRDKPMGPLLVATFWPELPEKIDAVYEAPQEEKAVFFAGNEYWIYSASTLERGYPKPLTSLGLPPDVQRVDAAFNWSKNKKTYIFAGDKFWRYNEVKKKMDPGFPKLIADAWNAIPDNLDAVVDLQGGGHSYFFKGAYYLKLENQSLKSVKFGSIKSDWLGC

[2] = test system: HCT116 human colon cancer cells; assay: HCT116 cell proliferation; type: cell-based
WT RPE1 cells = assay: RPE1 WT cell proliferation; type: cell-based; conditions: WT RPE cells, 72 hours
[3] = test system: bortezomib-resistant (BTZR) RPE1 cells; assay: Bortezomib-resistant RPE1 cell proliferation; type: cell-based; conditions: BTZR RPE cells, 72 hours
[4] = test system: c-Myc mRNA in HCT116 cells; assay: c-Myc mRNA expression by qRT-PCR; type: cell-based, human; conditions: 10 μM, 4 hours, normalized to GAPDH
[5] = test system: unfolded protein response in HCT116 cells; assay: Unfolded protein response immunoblot; type: cell-based, human; conditions: HCT116, 6 hours
HCT116 cells = assay: Cell detachment; conditions: ETPs 10 μM, 3 hours
NFE2L1 in HCT116 cells = assay: Immunoblot of NFE2L1 accumulation; conditions: HCT116, 6 hours
[6] = target: purified human 26S proteasome (Homo sapiens, UniProt O00487+P28074); assay: SDS-PAGE analysis of proteasome activity; type: biochemical; conditions: 37 °C, 2 hours; 20 μM capzimin, 10 μM carfilzomib
26S proteasome = 26S proteasome (Homo sapiens, UniProt O00487); assay: Fluorescence polarization protein degradation assay with purified 26S proteasome; conditions: 37 °C, SOP6, gliotoxin 10 µM each
IκB = assay: IκBα degradation assay after TNF-α stimulation; type: cell-based, human; conditions: Hela cells, 10 minutes pre-treatment, TNF-α 30 minutes
[7] = test system: ubiquitin conjugates in HCT116 cells; assay: Immunoblot of poly-ubiquitinated species; conditions: HCT116, 10 μM, 3 hours
Cul1 in HCT116 cells = assay: Immunoblot of Nedd8-conjugated Cul1; conditions: HCT116, 6 hours
[8] = target: chymotrypsin-like activity of the 20S proteasome (Homo sapiens, UniProt P28074); assay: Suc-LLVY-amc fluorescence assay of chymotrypsin-like activity; conditions: 20 µM compound, 20 μM Suc-LLVY-amc, 15 nM 26S proteasome

O=C1[C@H]2N(Cc3ccccc3)C(=O)[C@@](Cc3ccccc3)(N1Cc1ccccc1)S2=S (mixture of isomers) [SOP11, (±)-(1S,4S)-1,2,5-tribenzyl-7-thia-2,5-diazabicyclo[2.2.1]heptane-3,6-dione 7-sulfide]
IC50 (Rpn11): 1300 ± 300 nM
IC50 (Csn5): 600 ± 200 nM
IC50 (AMSH): 900 ± 100 nM
IC50 [1]: > 100 µM
IC50 (MMP-2): > 100 µM
GI50 [2]: ~4.7 µM and 4.7 µM
GI50 (WT RPE1 cells): ~8 µM
GI50 [3]: ~8 µM
level of c-Myc mRNA [4]: decreased
unfolded protein response (UPR) [5]: provoked a pronounced UPR
cell detachment (HCT116 cells): did not detach cells
accumulation of processed NFE2L1 (NFE2L1 in HCT116 cells): induced accumulation of processed NFE2L1

Nc1ncnc2c1ncn2[C@@H]1O[C@H](COP(=O)(O)OP(=O)(O)NP(=O)(O)O)[C@@H](O)[C@H]1O [AMP-PNP]
degradation of UbnGST-Wbp2 by 26S proteasome (SDS-PAGE) [6]: blocked

Nc1ncnc2c1ncn2[C@@H]1O[C@H](CO[P@](=O)(O)O[P@](=O)(O)O[P@@](=O)(O)S)[C@@H](O)[C@H]1O [ATPγS]
effect on decline in fluorescence polarization (K48UbnGST-Wbp2 degradation) (26S proteasome): inhibited

CC(C)C[C@H](NC(=O)[C@H](Cc1ccccc1)NC(=O)c1cnccn1)B(O)O [bortezomib]
cell detachment (HCT116 cells): not observed

O=C(NCCc1nccs1)c1cnc2c(SSc3cccc4cc(C(=O)NCCc5nccs5)cnc34)cccc2c1 [capzimin]
degradation of UbnGST-Wbp2 by 26S proteasome (SDS-PAGE) [6]: blocked
cell detachment (HCT116 cells): not observed

CC(C)C[C@H](NC(=O)[C@H](CCc1ccccc1)NC(=O)CN1CCOCC1)C(=O)N[C@@H](Cc1ccccc1)C(=O)N[C@@H](CC(C)C)C(=O)[C@@]1(C)CO1 [carfilzomib]
degradation of UbnGST-Wbp2 by 26S proteasome (SDS-PAGE) [6]: blocked

CN1C(=O)[C@]2(Cc3cn([C@]45C[C@@]67SS[C@@](CO)(C(=O)N6[C@H]4Nc4ccccc45)N(C)C7=O)c4ccccc34)SS[C@@]1(CO)C(=O)N2C [chetomin]
effect on degradation of IκB induced by TNF-α (IκB): strongly stabilized IκB

CN1C(=O)[C@]23CC4=CC=C[C@H](O)[C@H]4N2C(=O)[C@@]1(CO)SS3 [gliotoxin]
effect on degradation of IκB induced by TNF-α (IκB): strongly stabilized IκB
cell detachment (HCT116 cells): induce cell detachment
accumulation of poly-ubiquitinated species [7]: led to the accumulation of ubiquitinated species
accumulation of Nedd8-conjugated Cul1 (Cul1 in HCT116 cells): caused accumulation of Nedd8-conjugated Cul1
inhibition of chymotrypsin-like activity of the proteasome [8]: do not inhibit
